This note sets out measurements from patent US12528777B2, “Quinazolinones derivatives for treatment of non-alcoholic fatty liver disease, preparation and use thereof” (Council of Scientific and Industrial Research, priority 2020, dated 2026).

This test relates to ATGL. As to the kind of experiment: Western blot of ATGL level in HepG2 cells. The test is classed as cell-based. The arrangement: key to Increase in ATGL level: + = slight or in insignificant; ++ = Moderate; +++ and ++++ = active; +++ and ++++ = active; +++++ = very active. The settings on record: for Increase in ATGL level: HepG2 cells, score; for Increase in ATGL level / ATGL level in HepG2 cells: western blot; for EC50: fold increase of ATGL by densitometry, as % of 1.6 fold maximum with siCOP1, doses 10-5000 nM, read-out: EC50 (in-vitro); for ATGL level in HepG2 cells: 24 hours, 10 μM screening or 50 nM-5 μM dose dependent. As for the experimental part:
To select the compounds capable of inhibiting the ubiquitination of ATGL by COP1 by targeting the VP motif, confocal microscopy was performed with the provided molecules. If the compound was effective in inhibiting the interaction, there would be a reduction in the number of fat droplets in the cells after treatment. […] With this rationale in mind, HepG2 cells were induced to accumulate lipid droplets after treatment with 250 µM of oleate and 10 μM of the specific compounds were added. The potential of the compounds to bring about a reduction in the number of fat droplets was then checked by comparison with oleate induced cells by counting number of droplets of approximately 20 cells from each treatment and calculating the average number of lipid droplets of each cell. The selected compounds were then subjected to dose dependent treatments and the ones which could maintain its potency to reduce fat droplets at lower doses were then selected for western blot analysis. The compound which could reduce the number of fat droplets in the cells are expected to raise the levels of ATGL since they are likely to deter COP1 from ubiquitinating ATGL. This increase will be visible only in the protein level and gene expression is likely to remain unchanged since ubiquitination is a […] modification. Thus, western blot was performed to check ATGL levels in the cells with the selected molecules.
HepG2 cells were treated with the compounds 9, 10, 11, 17, 18, 23, 24, 115, 123, 127, 139,107, 171, 179, 73, 187, 211, 215, 219, 223, 232, 238, 241, 244, 258, 299, 308, and 333a, (10 μM for initial screening and 50 nM, 100 nM, 200 nM, 500 nM, 1 μM and 5 μM for dose dependent assays) for 24 hours. After removing media from the cells, the wells were washed with 1×PBS twice to remove any remnant media. Cells were then lysed in lysis buffer containing 50 mM Tris-HCl (pH 7.4), 100 mM NaCl, 1 mM EDTA, 1 mM EGTA, 1% Triton X-100 and protease inhibitor cocktail (Millipore, Billierica, MA, USA). Following centrifugation at 20,000 g for 20 minutes, the protein solution was extracted from the cells. Protein was estimated using Bradford assay. Bradford's reagent (BioRad) was diluted in 1:4 ratio in double distilled water. 2 μl of protein sample was added to 100 μl of the reagent and absorbance was measured at 595 nm. […] of protein was diluted in lysis buffer. 1× loading buffer diluted from 5× stock containing 250 mM Tris-HCl (pH 6.8), 10% SDS, 50% glycerol, 0.1% bromophenol Blue and 10% β-mercaptoethanol was added. The protein samples were then heated at 95° C. for 10 minutes, cooled and centrifuged at 12,000 g for 2 minutes prior to loading.
For western blotting, the proteins were resolved in 10% SDS PAGE (discontinuous buffer system). 1× running buffer containing SDS, Tris Base and Glycine was used to run the gel at 80V for approximately 2 hours. Transfer was done using PVDF membrane (Millipore) having pore size of 0.45 μm. 1× transfer buffer containing Tris-Base, Glycine and 20% methanol was used for wet transfer. Transfer was done at 90V for 3 hours. Following transfer, the PVDF membrane containing the proteins were washed in 1×PBST comprising of 1×PBS and 1% Tween 20 (Sigma Aldrich). The membrane was then incubated for 1 hour at room temperature in 5% skim milk powder to block the non-specific sites. Following multiple washes with 1×PBST to wash away any remaining blocking buffer, the required primary antibody (COP1 [Bethyl Laboraties], ATGL [Cell Signalling Technology] or Actin[Cell Signalling Technology]) prepared with 1×PBST, 1% Bovine Serum Albumin and 0.04% Sodium Azide was added to the membrane and incubated overnight at 4° C. The next day, the membrane was again washed multiple times with 1×PBST to remove any unbound primary antibody. The membrane was then incubated with goat anti-rabbit secondary antibody (Genei) for 1 hour at room temperature and washed again for multiple times with 1×PBST. […]

Consider `COCCn1cnc2ccc(NC(=O)Nc3cccc(CNC(C)=O)c3)cc2c1=O` [Compound 25, N-(3-(3-(3-(2-methoxyethyl)-4-oxo-3,4-dihydroquinazolin-6-yl)ureido)benzyl)acetamide], for which the “Increase in ATGL level” value is on record as “+”. The same measure, in the same setting: to `COCCn1cnc2ccc(NC(=O)Nc3ccc(C(F)(F)F)cc3)cc2c1=O` [Compound 38, 1-(3-(2-methoxyethyl)-4-oxo-3,4-dihydroquinazolin-6-yl)-3-(4-(trifluoromethyl)phenyl)urea] belongs “++”. Same read-out and setting: under `COCCn1cnc2ccc(NC(=O)Nc3ccccc3C(F)(F)F)cc2c1=O` [Compound 39, 1-(3-(2-methoxyethyl)-4-oxo-3,4-dihydroquinazolin-6-yl)-3-(2-(trifluoromethyl)phenyl)urea] stands “++”; under `COCCn1cnc2ccc(NC(=O)Nc3cccc(C(C)=O)c3)c(-c3ccc(F)cc3)c2c1=O` [Compound 47, 1-(3-acetylphenyl)-3-(5-(4-fluorophenyl)-3-(2-methoxyethyl)-4-oxo-3,4-dihydroquinazolin-6-yl)urea], “+++”; under `COCCn1cnc2ccc(NC(=O)Nc3cccc(C(C)=O)c3)c(C3=CCN(C(=O)OC(C)(C)C)CC3)c2c1=O` [Compound 59, tert-butyl 4-(6-(3-(3-acetylphenyl)ureido)-3-(2-methoxyethyl)-4-oxo-3,4-dihydroquinazolin-5-yl)-5,6-dihydropyridine-1 (2H)-carboxylate], “+”. Regarding `COCCn1cnc2ccc(NC(=O)Nc3cccc(C(C)=O)c3)c(C3=CCNCC3)c2c1=O` [Compound 60, 1-(3-acetylphenyl)-3-(3-(2-methoxyethyl)-4-oxo-5-(1,2,3,6-tetrahydropyridin-4-yl)-3,4-dihydroquinazolin-6-yl)urea], the “Increase in ATGL level” value was “+”.

As to `COCCn1cnc2ccc(NC(=O)Nc3cccc(C(C)=O)c3)c(C3CCN(C(=O)OC(C)(C)C)CC3)c2c1=O` [Compound 61, tert-butyl 4-(6-(3-(3-acetylphenyl)ureido)-3-(2-methoxyethyl)-4-oxo-3,4-dihydroquinazolin-5-yl)piperidine-1-carboxylate], the “Increase in ATGL level” value is “+”.

As for `COCCn1cnc2ccc(NC(=O)Nc3cccc(C(C)=O)c3)c(C3CCNCC3)c2c1=O` [Compound 62, 1-(3-acetylphenyl)-3-(3-(2-methoxyethyl)-4-oxo-5-(piperidin-4-yl)-3,4-dihydroquinazolin-6-yl)urea], the “Increase in ATGL level” value is “+++”. Same read-out and setting: under `COCCn1cnc2ccc(NC(=O)Nc3cccc(C(C)=O)c3)c(-c3ccc(OC)cc3)c2c1=O` [Compound 64, 1-(3-acetylphenyl)-3-(3-(2-methoxyethyl)-5-(4-methoxyphenyl)-4-oxo-3,4-dihydroquinazolin-6-yl)urea] stands “+”. Same read-out and setting: under `COCCn1cnc2ccc(NC(=O)Nc3cccc(C(C)=O)c3)c(-c3ccc(C(F)(F)F)cc3)c2c1=O` [Compound 66, 1-(3-acetylphenyl)-3-(3-(2-methoxyethyl)-4-oxo-5-(4-(trifluoromethyl)phenyl)-3,4-dihydroquinazolin-6-yl)urea] stands “++”. Regarding `COCCn1c(C2CCCC2)nc2ccc(NC(=O)Nc3cccc(C(C)=O)c3)cc2c1=O` [Compound 127, 1-(3-acetylphenyl)-3-(2-cyclopentyl-3-(2-methoxyethyl)-4-oxo-3,4-dihydroquinazolin-6-yl)urea], the concentration giving a half-maximal response (EC50) was found to be 10.8 nM and the “ATGL level in HepG2 cells” value was “increased ATGL level”. With `COc1ccccc1-n1cnc2ccc(NC(=O)Nc3cccc(C(C)=O)c3)cc2c1=O` [Compound 131, 1-(3-acetylphenyl)-3-(3-(2-methoxyphenyl)-4-oxo-3,4-dihydroquinazolin-6-yl)urea], the “Increase in ATGL level” value is reported as “+”. On the same count and under the same terms, to `CC(=O)c1cccc(NC(=O)Nc2ccc3ncn(CCOC(C)C)c(=O)c3c2)c1` [Compound 183, 1-(3-acetylphenyl)-3-(3-(2-isopropoxyethyl)-4-oxo-3,4-dihydroquinazolin-6-yl)urea] belongs “+++”; to `CC(=O)c1cccc(NC(=O)Nc2ccc3ncn(C4CCCCC4)c(=O)c3c2)c1` [Compound 187, 1-(3-acetylphenyl)-3-(3-cyclohexyl-4-oxo-3,4-dihydroquinazolin-6-yl)urea], “+++”. Turning to `COCCn1c(-c2cnccn2)nc2ccc(NC(=O)Nc3cccc(C(C)=O)c3)cc2c1=O` [Compound 223, 1-(3-acetylphenyl)-3-(3-(2-methoxyethyl)-4-oxo-2-(pyrazin-2-yl)-3,4-dihydroquinazolin-6-yl)urea], the EC50 is 70.3 nM and the “ATGL level in HepG2 cells” value is on record as “increased ATGL level”. For `COCCn1c(CN2CCCC2)nc2ccc(NC(=O)Nc3cccc(C(C)=O)c3)cc2c1=O` [Compound 232, 1-(3-acetylphenyl)-3-(3-(2-methoxyethyl)-4-oxo-2-(pyrrolidin-1-ylmethyl)-3,4-dihydroquinazolin-6-yl)urea], the “Increase in ATGL level” value is given as “+++”, the EC50 worked out at 434 nM and the “ATGL level in HepG2 cells” value is given as “increased ATGL level”.

On to `COCCn1c(CN2CCN(C)CC2)nc2ccc(NC(=O)Nc3cccc(C(C)=O)c3)cc2c1=O` [Compound 244, 1-(3-acetylphenyl)-3-(3-(2-methoxyethyl)-2-((4-methylpiperazin-1-yl)methyl)-4-oxo-3,4-dihydroquinazolin-6-yl)urea], for which the “ATGL level in HepG2 cells” value is recorded as “increased ATGL level”. As for `CC(=O)c1cccc(NC(=O)Nc2ccc3ncn(CC(=O)Nc4ccccc4Br)c(=O)c3c2)c1` [Compound 259, 2-(6-(3-(3-acetylphenyl)ureido)-4-oxoquinazolin-3 (4H)-yl)-N-(2-bromophenyl)acetamide], the “Increase in ATGL level” value is “+++”.

`CCC(COC)n1c(C)nc2ccc(NC(=O)Nc3cccc(C(C)=O)c3)cc2c1=O` (stereo not shown) [Compound 281, 1-(3-acetylphenyl)-3-(3-(1-methoxybutan-2-yl)-2-methyl-4-oxo-3,4-dihydroquinazolin-6-yl)ureae]: the “Increase in ATGL level” value is “++”.

Regarding `COCC(C)n1c(C)nc2ccc(NC(=O)Nc3cccc(C(C)=O)c3)cc2c1=O` (stereo not shown) [Compound 285, 1-(3-acetylphenyl)-3-(3-(1-methoxypropan-2-yl)-2-methyl-4-oxo-3,4-dihydroquinazolin-6-yl)urea], the “Increase in ATGL level” value was “+”.

Consider `COCCn1c(C2CCN(C(=O)OC(C)(C)C)CC2)nc2ccc(NC(=O)Nc3cccc(C(C)=O)c3)cc2c1=O` [Compound 299, tert-butyl 4-(6-(3-(3-acetylphenyl)ureido)-3-(2-methoxyethyl)-4-oxo-3,4-dihydroquinazolin-2-yl)piperidine-1-carboxylate], for which the concentration giving a half-maximal response (EC50) amounted to 290 nM and the “ATGL level in HepG2 cells” value is “increased ATGL level”. On to `COCCn1cnc2ccc(NC(=O)N(O)c3cccc(C(C)=O)c3)cc2c1=O` [Compound 308, 1-(3-acetylphenyl)-1-hydroxy-3-(3-(2-methoxyethyl)-4-oxo-3,4-dihydroquinazolin-6-yl)urea], for which the “ATGL level in HepG2 cells” value is reported as “increased ATGL level”.

Consider `COCCn1c(C(=O)N2CCN(C)CC2)nc2ccc(NC(=O)Nc3cccc(C(C)=O)c3)cc2c1=O` [Compound 333a, 1-(3-acetylphenyl)-3-(3-(2-methoxyethyl)-2-(4-methylpiperazine-1-carbonyl)-4-oxo-3,4-dihydroquinazolin-6-yl)urea], for which the “ATGL level in HepG2 cells” value was “increased ATGL level”.
